Read-outs that look alike come from different tables or passages of the source.
Tests used:
[1] = Pharmacokinetic study in rats after oral administration of R-FF or H-FF extract (UHPLC-MS/MS of serum); type: in vivo, SD rats; conditions: for eliminate rate (judged from t1/2 and MRT values): R-FF group; for AUC(0-inf) / AUC(0-t) / Cmax / Tmax / half-life / MRT last: male, SD, rat, serum, po, 140 g/kg; for AUC(0-inf) / AUC(0-t) / Cmax / Tmax / half-life / MRT last / t 1/2 / C max / MRT0–t / T max: mean ± SD; for AUC(0-inf) / AUC(0-t) / Cmax / Tmax / half-life / t 1/2 / C max / MRT0–t / T max: n = 6; for MRT last: n = 6, read-out: MRT0–t; for change of T1/2 in H-FF group compared to R-FF group / change of MRT0–t in H-FF group compared to R-FF group: oral, H-FF vs R-FF; for double peak phenomena in serum concentration-time curve: both R-FF and H-FF, Figure 3
Description: MS analysis was performed on a TSQ Quantis™ triple quadrupole mass spectrometer (Thermo Scientific™, Vanquish™, (Waltham, MA, USA)) equipped with an autosampler. Chromatographic separation was performed on a Thermo Hypersil GOLD C18 column (100 mm × 2.1 mm, 1.9 µm particles). The column temperature was maintained at 30°C. Through the Thermo Scientific™, TraceFinder™ software was acquired and processed. The mobile phase was composed of acetonitrile (A) and water (both containing 0.3% formic acid) (B) with a gradient elution program (0–5 min:10–19% acetonitrile, 5–8 min:19–25% acetonitrile, 8–28 min:25%–100% acetonitrile, 28–32 min: 100%–10%, and 32–34 min: 10%–10%). The system was re-equilibrated in the initial mobile phase 4.0 min before the next injection. The flow rate was set at 0.3 mL/min, and the injection volume was set as 2 μL.
The analytes were detected on a TSQ Quantis triple quadrupole mass spectrometer by selected reaction monitoring (SRM) equipped with a heated electrospray ionization source operated in negative ion modes. The parameters were set as follows: the sheath gas and the aux gas were set at 30 Arb and 10 Arb, respectively; the ion transfer tube temperature was maintained at 325°C; and the vaporizer temperature was set to 350°C.
5 μL of IS solution containing chloramphenicol 100 ng/ml and 795 μL of acetonitrile were added to a 100 μL drug serum sample for sedimentation of proteins. Subsequently, the 1.5 mL centrifuge tube containing mixture was vortexed for 5 min. After that, the mixture was centrifuged at 12,000 rpm for 20 min at 4°C. Finally, the supernatant fluid was removed and evaporated to dryness under a stream of nitrogen at 35°C. The dried residue was redissolved by 100 μL 50% methanol aqueous solution. And the supernatant prepared above was filtered through 0.22 μm membranes transferred to vials by the UHPLC-MS/MS system for data analysis.
12 adult male SD rats (weighing 250∼300 g) were used in pharmacokinetics experiments and randomly assigned to two groups: R-FF group and H-FF group. Before being administered R-FF or H-FF extract, all the rats fasted but with free access to water for 12 h. The R-FF or H-FF extract was orally administered to the rats (140 g/kg body weight). Aliquots of 0.3 ml blood samples were collected in 1.5 ml heparin lithium-anticoagulant tubes at (0.083, 0.166, 0.333, 0.5, 1, 2, 4, 6, 8, 12, 24, 36, and 48 h) via the postorbital venous plexus veins from each rat after oral administration. The blood sample was immediately centrifuged at 3500 rpm for 5 min, and the supernatant 100 μL serum was transferred into a new centrifuge tube and stored at −80°C until analysis.

[2] = type: in vitro ADME; conditions: rat plasma, IS 100 ng/mL, n = 3
Description: Short-term stability was calculated by keeping the QC samples at room temperature for 4 hours. Long-term stability was investigated by storing the same QC samples at −20°C in a refrigerator for 30 days. The freeze and thaw stability was determined by analyzing the same QC samples after 3 consecutive freeze-thaw (−20 to 20°C) cycles. The postpreparative stability was evaluated by keeping the QC samples at autosampler for 24 hours.

Structure (SMILES)	eliminate rate (judged from t1/2 and MRT values) [1]	AUC(0-inf) ([1]; oral H-FF extract 140 g/kg) [µg·h/mL]	AUC(0-t) ([1]; oral H-FF extract 140 g/kg) [ng·h/mL]	Cmax ([1]; oral H-FF extract 140 g/kg) [ng/mL]	Tmax ([1]; oral H-FF extract 140 g/kg) [min]	half-life ([1]; oral H-FF extract 140 g/kg) [min]	MRT last ([1]; oral H-FF extract 140 g/kg) [h]	AUC(0-inf) ([1]; oral R-FF extract 140 g/kg) [µg·h/mL]	AUC(0-t) ([1]; oral R-FF extract 140 g/kg) [ng·h/mL]	Cmax ([1]; oral R-FF extract 140 g/kg) [ng/mL]	Tmax ([1]; oral R-FF extract 140 g/kg) [min]	half-life ([1]; oral R-FF extract 140 g/kg) [min]	MRT last ([1]; oral R-FF extract 140 g/kg) [h]	change of T1/2 in H-FF group compared to R-FF group [1]	double peak phenomena in serum concentration-time curve [1]	change of MRT0–t in H-FF group compared to R-FF group [1]	other results
O=C(/C=C/c1ccc(O)c(O)c1)O[C@@H]1C[C@](O)(C(=O)O)C[C@@H](O)[C@H]1O [Chlorogenic acid, chlorogenic acid]	slow eliminate rate	428 ± 41.6	281000 ± 10800	80400 ± 6350	19.8	1970 ± 292	11.1 ± 0.16	236 ± 75.6	167000 ± 21800	75600 ± 3060	19.8	2000 ± 202	10.6 ± 0.82	a little shorter			
C[C@@H]1O[C@@H](OC[C@H]2O[C@@H](Oc3c(-c4ccc(O)c(O)c4)oc4cc(O)cc(O)c4c3=O)[C@H](O)[C@@H](O)[C@@H]2O)[C@H](O)[C@H](O)[C@H]1O [Rutin, rutin]	slow eliminate rate	105 ± 9.98	64600 ± 4910	7040 ± 429	23.4 ± 5.4	857 ± 137	22.7 ± 0.82	211 ± 37.9	100000 ± 9130	7430 ± 446	19.8	1840 ± 842	18.91 ± 0.17		obvious double peak phenomena	increased	
O=C(N[C@H](CO)[C@H](O)c1ccc([N+](=O)[O-])cc1)C(Cl)Cl [Chloramphenicol (IS), chloramphenicol]																	Freeze-thaw stability (RE%) ([2]; 3 freeze-thaw cycles (−20 to 20°C)): −4.77%; Short-term stability (RE%) ([2]; room temperature 4 hours): 0.74%; Long-term stability (RE%) ([2]; −20°C 30 days): −2.22%
COc1cc(/C=C/C(=O)O)ccc1O [Ferulic acid, ferulic acid]	fast eliminate rate	2.25 ± 0.442	1760 ± 224	380 ± 5.89	19.8	199 ± 40.8	3.33 ± 0.11	2.14 ± 0.196	853 ± 29.4	253 ± 25.7	19.8	304 ± 112	4.21 ± 0.11		obvious double peak phenomena		
O=C(O)/C=C/c1ccc(O)c(O)c1 [Caffeic acid, caffeic acid]	slow eliminate rate	66.8 ± 12.2	24100 ± 2060	4550 ± 235	19.8	4730 ± 1560	12.7 ± 0.38	35.2 ± 9.99	20200 ± 405	4470 ± 311	19.8	1940 ± 1060	14.3 ± 0.25		obvious double peak phenomena		
O=C(C=Cc1ccc(O)c(O)c1)OC1CC(O)(C(=O)O)CC(O)C1OC(=O)C=Cc1ccc(O)c(O)c1 (stereo not drawn) [Isochlorogenic acid B, isochlorogenic acid B]	slow eliminate rate	455 ± 14.6		52300 ± 3010	19.8	1010 ± 305	15.2 ± 0.19	201 ± 7.21	194000 ± 6580	25200 ± 1590	19.8		10.9 ± 1.04			increased	t 1/2 ([1]; oral R-FF extract 140 g/kg): 9.68 ± 1.36 h
O=C(/C=C/c1ccc(O)c(O)c1)O[C@H]1[C@H](O)C[C@](O)(C(=O)O)C[C@H]1O [Cryptochlorogenic acid, cryptochlorogenic acid]	slow eliminate rate	401 ± 22	351000 ± 16700	97300 ± 1150	19.8	1050 ± 94.2	13.2 ± 0.39	242 ± 49.1	170000 ± 5980	67800 ± 3100	19.8	1310 ± 555	11.2 ± 0.53	a little shorter			
O=C(C=Cc1ccc(O)c(O)c1)OC1CC(O)(C(=O)O)CC(O)C1OC(=O)C=Cc1ccc(O)c(O)c1 (stereo not drawn) [Isochlorogenic acid C, isochlorogenic acid C]	slow eliminate rate															increased	C max ([1]; oral H-FF extract 140 g/kg): 28183.80 ± 3739.61 ng/mL; MRT0–t ([1]; oral H-FF extract 140 g/kg): 16.42 ± 0.84 h; T max ([1]; oral H-FF extract 140 g/kg): 19.8 ± 0 min; t 1/2 ([1]; oral H-FF extract 140 g/kg): 22.14 ± 9.73 h; C max ([1]; oral R-FF extract 140 g/kg): 12916.78 ± 3117.99 ng/mL; MRT0–t ([1]; oral R-FF extract 140 g/kg): 14.32 ± 1.56 h; T max ([1]; oral R-FF extract 140 g/kg): 19.8 ± 0 min; t 1/2 ([1]; oral R-FF extract 140 g/kg): 20.36 ± 5.22 h
O=C(C=Cc1ccc(O)c(O)c1)OC1CC(O)(C(=O)O)CC(O)C1O (stereo not drawn) [Neochlorogenic acid, neochlorogenic acid]	slow eliminate rate	117 ± 15.9	95700 ± 6560	24700 ± 3220	19.8	883 ± 233	10.9 ± 0.44	87 ± 8.34	56000 ± 4220		19.8	1810 ± 411	12.5 ± 1.19	a little shorter	obvious double peak phenomena		
